Test results: patent US11753363B2, “13-oxidized ingenol derivative and use thereof” (Tianjin Pharmaceutical Da Ren Tang Group Corp., Ltd. …, priority 2017, dated 2023)
≈ marks a conversion by molar mass, not a printed value.

Key:
Type in all cases: cell-based
[1] = tested on: HeLa (human cervical cancer cells); experiment: Inhibition of proliferation of tumor cell lines (MTT), HeLa; details: Homo sapiens, 72 h, read-out: IC50 value of compound for inhibition of proliferation of tumor cell lines, HeLA
Procedure: (§1) In this example, the inhibitory activity of compounds of the present invention against proliferation of seven human tumor cell lines and mouse B16-F10 melanoma cells was tested in vitro, and the IC50 value (50% inhibitory concentration) of compounds against each tumor cell line was calculated.
(§2) The seven human tumor cell lines are: MCF-7 (human breast cancer cells), LOVO (human colon cancer cells), A549 (human lung cancer cells), BGC-823 (human gastric cancer cells), SMMC-7721 (human liver cancer cells), K562 (human leukemia cells), and HeLa (human cervical cancer cells).
(§3) IC50 values of the compounds for A549, BGC-823, LOVO, MCF-7, SMMC-7721, HeLa, and B16-F10 cells were tested. The above cells were routinely cultured in 1640 nutrient solution containing 10% calf serum, with passage for 1 time every 2 days, and the cells in logarithmic growth phase were taken for experiments. After the A549, BGC-823, LOVO, MCF-7, SMMC-7721, HeLa and B16-F10 cells in logarithmic growth phase were subjected to 0.25% trypsin digestion, they were blown into a single cell suspension, and then the cell concentration was adjusted to about 1×10^5·mL^−1 using RPMI 1640 solution containing 10% calf serum. The cells were seeded in a 96-well culture plate at 100 μL per well, and cultured for 24 hours until the cells were attached. K562 cells were taken and centrifuged and diluted into 2×10^5·mL^−1 single cell suspension with RPMI 1640 solution containing 10% calf serum, and inoculated into a 96-well culture plate at 100 μL per well.
(§4) 100 μL of sample solution with different concentrations to be tested were added to the above 96-well plate, each concentration was added to 4 wells in parallel, and the cell control group was added with an equal volume of RPMI 1640 medium containing 10% calf serum to make a reaction volume of 200 μL. After incubating in an incubator at 37° C., 5% CO2 for 72 h, 10 μL of 5 mg·mL^−1 MTT solution was added to each well, and incubated at 37° C. for 4 h. The supernatant was carefully aspirated, 180 μL of DMSO was added to each well followed by shaking, and the absorbance (OD) value was measured at 570 nm on the microplate reader. The inhibition rate was calculated, and regression equation was established with the logarithmic value of the sample concentration and the inhibition rate (IR) to find the IC50 value of the compound against the cells to be tested. IR (%)=(1−OD value of the experimental group/OD value of the cell control group)×100%

[2] = tested on: SMMC-7721 (human liver cancer cells); experiment: Inhibition of proliferation of tumor cell lines (MTT), SMMC-7721; details: Homo sapiens, SMMC-7721, 72 h, read-out: IC50 value of compound for inhibition of proliferation of tumor cell lines, SMMC-7721
Procedure: as §1, §2, §3, §4

[3] = tested on: MCF-7 (human breast cancer cells); experiment: Inhibition of proliferation of tumor cell lines (MTT), MCF-7; details: Homo sapiens, MCF7, MCF-7, 72 h, read-out: IC50 value of compound for inhibition of proliferation of tumor cell lines, MCF-7
Procedure: as §1, §2, §3, §4

[4] = tested on: A549 (human lung cancer cells); experiment: Inhibition of proliferation of tumor cell lines (MTT), A549; details: Homo sapiens, A549, 72 h, read-out: IC50 value of compound for inhibition of proliferation of tumor cell lines, A549
Procedure: as §1, §2, §3, §4

[5] = tested on: K562 (human leukemia cells); experiment: Inhibition of proliferation of tumor cell lines (MTT), K562; details: Homo sapiens, K562, 72 h, read-out: IC50 value of compound for inhibition of proliferation of tumor cell lines, K562
Procedure: as §1, §2, §3, §4

[6] = tested on: BGC-823 (human gastric cancer cells); experiment: Inhibition of proliferation of tumor cell lines (MTT), BGC-823; details: Homo sapiens, BGC-823, 72 h, read-out: IC50 value of compound for inhibition of proliferation of tumor cell lines, BGC-823
Procedure: as §1, §2, §3, §4

[7] = tested on: LOVO (human colon cancer cells); experiment: Inhibition of proliferation of tumor cell lines (MTT), LOVO; details: Homo sapiens, 72 h, read-out: IC50 value of compound for inhibition of proliferation of tumor cell lines, LOVO
Procedure: as §1, §2, §3, §4

[8] = tested on: neutrophilic granulocytes; experiment: Neutrophil oxidative burst (luminol chemiluminescence); details: Neutrophil; 3 μg/mL; rat neutrophils; (Csample−Ccontrol)/Ccontrol×100%; read-out: Efficiency of compounds in stimulating neutrophil oxidative burst
Procedure: This example investigated the effect of compound on neutrophil oxidative burst and calculated the efficiency of each compound in stimulating neutrophil oxidative burst.
Blood was taken from the abdominal aorta of rat. The neutrophilic granulocytes were isolated by the operational procedure of the rat peripheral blood neutrophil isolation kit. The neutrophilic granulocytes were re-suspended by Hanks, and were plated in a 96-well white plate at 1×10^5 cells/well, 80 μL/well; 1 mM of Luminol was added at 10 μL/well; 10 μL of the sample was added to each well, and the degree of oxidative burst was evaluated by chemiluminescence. Calculation formula of Efficiency: Efficiency (%)=(Csample−Ccontrol)/Ccontrol×100%

[9] = tested on: release of IL-8 by human keratinocytes (HaCaT); experiment: Release of IL-8 by human keratinocytes (HaCaT), IL-8 Elisa; details: Homo sapiens, HaCaT; 1 μg/mL; 24 h; (Csample−Ccontrol)/Ccontrol×100%; read-out: Efficiency of compound in stimulating the release of IL-8 by HaCaT cells
Procedure: This Example investigated the effect of compound on release of IL-8 by human keratinocytes (HaCaT) and calculated the efficiency of each compound in stimulating the release of IL-8 by human keratinocytes (HaCaT).
Hacat cells were cultured in MEM+10% FBS under the conditions of 37° C., 5% CO2, and when the cells reached 80-95% fusion, they were inoculated into a 96-well culture plate (1×10^4 cells/well) at 100 μL/well, and incubated for 18-24 h. The supernatant was discarded and the cells were incubated for 3-6 h in 1% FBS medium. Different concentrations of the sample solution of compound to be tested were added to each well, and the cell control group was added with an equal volume of 1% FBS medium at 10 μL/well, and incubated for 24 h. The supernatant was taken and tested according to the operation sequence of the IL-8 Elisa kit. Calculation formula of Efficiency: Efficiency (%)=(Csample−Ccontrol)/Ccontrol×100%

[10] = tested on: mouse B16-F10 melanoma cells; experiment: Inhibition of proliferation of tumor cell lines (MTT), B16-F10; details: Mus musculus, B16-F10, 72 h, read-out: IC50 value of compound for inhibition of proliferation of tumor cell lines, B16-F10
Procedure: as §1, §3, §4

CCCCCCCCCCCC(=O)O[C@@]12C[C@@H](C)[C@]34C=C(C)[C@H](O)[C@@]3(O)[C@H](O)C3(COC(=O)C(C)C(C)C)OC3[C@H](C4=O)[C@@H]1C2(C)C (stereo partly shown) [Compound 1f, 6,7-epoxy-20-O-(2,3-dimethylbutyryl)-13-O-dodecanoyl-ingenol]
IC50 [1]: 16.8 µg/mL (≈ 25.4 µM)

CCCCCCCCCCCC(=O)O[C@@]12C[C@@H](C)[C@]34C=C(C)[C@H](O)[C@@]3(O)[C@@H]3OC(C)(C)OCC3=C[C@H](C4=O)[C@@H]1C2(C)C [Compound 2b, 13-O-dodecanoyl-ingenol 5,20-acetonide]
IC50 [2]: 15.2 µg/mL (≈ 25.9 µM)
IC50 [3]: 13.7 µg/mL (≈ 23.3 µM)
IC50 [4]: 15 µg/mL (≈ 25.6 µM)
IC50 [5]: 0.85 µg/mL (≈ 1.45 µM)
IC50 [6]: 17.8 µg/mL (≈ 30.3 µM)
IC50 [7]: 23 µg/mL (≈ 39.2 µM)

CCCCCCCCCCCC(=O)O[C@@]12C[C@@H](C)[C@]34C=C(C)[C@@H]5OC(C)(C)O[C@@]53[C@H](O)C(CO)=C[C@H](C4=O)[C@@H]1C2(C)C [Compound 2c, 13-O-dodecanoyl-ingenol 3,4-acetonide]
IC50 [2]: 8.21 µg/mL (≈ 14 µM)
activation at 3 µg/mL [8]: 64.6%
IC50 [3]: 8.89 µg/mL (≈ 15.1 µM)
IC50 [4]: 9.59 µg/mL (≈ 16.3 µM)
IC50 [5]: 0.42 µg/mL (≈ 0.716 µM)
IC50 [6]: 5.3 µg/mL (≈ 9.03 µM)
IC50 [7]: 10.3 µg/mL (≈ 17.6 µM)

C/C=C(/C)C(=O)O[C@H]1C(C)=C[C@]23C(=O)[C@@H](C=C(CO)[C@@H](O)[C@]12O)[C@@H]1C(C)(C)[C@]1(O)C[C@H]3C [Compound 3, 3-O-angeloyl-13-hydroxy-ingenol]
activation at 3 µg/mL [8]: 65%
activation at 1 µg/mL [9]: 23.8%

CCCCCC(=O)O[C@@]12C[C@@H](C)[C@]34C=C(C)[C@H](O)[C@@]3(O)[C@H](O)C(CO)=C[C@H](C4=O)[C@@H]1C2(C)C [Compound 6, 13-O-n-hexanoyl-ingenol]
activation at 3 µg/mL [8]: 52.2%

CCCCCCCC(=O)O[C@@]12C[C@@H](C)[C@]34C=C(C)[C@H](O)[C@@]3(O)[C@H](O)C(CO)=C[C@H](C4=O)[C@@H]1C2(C)C [Compound 7, 13-O-n-octanoyl-ingenol]
IC50 [2]: 16 µg/mL (≈ 32.6 µM)
activation at 3 µg/mL [8]: 45%
IC50 [1]: 29.3 µg/mL (≈ 59.7 µM)
IC50 [10]: 38.4 µg/mL (≈ 78.3 µM)
IC50 [3]: 16.2 µg/mL (≈ 33 µM)
IC50 [4]: 29.7 µg/mL (≈ 60.5 µM)
IC50 [5]: 1.72 µg/mL (≈ 3.51 µM)
IC50 [6]: 25.1 µg/mL (≈ 51.2 µM)
IC50 [7]: 24.1 µg/mL (≈ 49.1 µM)

CCCCCCCCCC(=O)O[C@@]12C[C@@H](C)[C@]34C=C(C)[C@H](O)[C@@]3(O)[C@H](O)C(COC(=O)C(C)C(C)C)=C[C@H](C4=O)[C@@H]1C2(C)C (stereo partly shown) [Compound 14, 20-O-(2,3-dimethylbutyryl)-13-O-decanoyl-ingenol]
activation at 3 µg/mL [8]: 62.8%
activation at 1 µg/mL [9]: 22.6%

C/C=C(/C)C(=O)OCC1=C[C@@H]2C(=O)[C@]3(C=C(C)[C@H](OC(=O)/C(C)=C\C)[C@@]3(O)[C@@H]1O)[C@H](C)C[C@]1(OC(=O)CCCCCCCCCCC)[C@H]2C1(C)C [Compound 15a, 3,20-O-diangeloyl-13-O-dodecanoyl-ingenol]
IC50 [2]: 26.9 µg/mL (≈ 37.8 µM)
IC50 [3]: > 100 µg/mL
IC50 [4]: > 100 µg/mL
IC50 [5]: 3.22 µg/mL (≈ 4.53 µM)
IC50 [6]: > 100 µg/mL
IC50 [7]: > 100 µg/mL
